Data: ChEMBL document CHEMBL3132777, “Novel proteinprotein interaction inhibitor of Nrf2Keap1 discovered by structure-based virtual screening” (Medchemcomm, 2014)
pEC50: −log10 of the molar value. Activity calls are given as the source filed them. The calls are words filed in the database; no cut-off is given here.

Experiments:
HepG2 [1] = assay: Induction of Nrf2 transcription activity in human HepG2-ARE-C8 cells assessed as ARE gene expression after 12 to 24 hrs by cell-based luciferase reporter assay; type: functional
HepG2 [2] = assay: Cytotoxicity against human HepG2-ARE-C8 cells at 200 uM; type: cell-based; details: hepg2, 200 µM
HepG2 [3] = assay: Induction of Nrf2 transcription activity in human HepG2-ARE-C8 cells assessed as increase in ARE gene expression at 200 uM by cell-based luciferase reporter assay relative to untreated control; type: functional
[4] = molecular target: Kelch-like ECH-associated protein 1 (Homo sapiens, UniProt Q14145); assay: Inhibition of FITC-9mer Nrf2 peptide amide/Keap1 Kelch domain (unknown origin) interaction after 30 mins by fluorescence polarization assay
Kelch-like ECH-associated protein 1, sequence (Q14145 whole entry, the tested form may be a part): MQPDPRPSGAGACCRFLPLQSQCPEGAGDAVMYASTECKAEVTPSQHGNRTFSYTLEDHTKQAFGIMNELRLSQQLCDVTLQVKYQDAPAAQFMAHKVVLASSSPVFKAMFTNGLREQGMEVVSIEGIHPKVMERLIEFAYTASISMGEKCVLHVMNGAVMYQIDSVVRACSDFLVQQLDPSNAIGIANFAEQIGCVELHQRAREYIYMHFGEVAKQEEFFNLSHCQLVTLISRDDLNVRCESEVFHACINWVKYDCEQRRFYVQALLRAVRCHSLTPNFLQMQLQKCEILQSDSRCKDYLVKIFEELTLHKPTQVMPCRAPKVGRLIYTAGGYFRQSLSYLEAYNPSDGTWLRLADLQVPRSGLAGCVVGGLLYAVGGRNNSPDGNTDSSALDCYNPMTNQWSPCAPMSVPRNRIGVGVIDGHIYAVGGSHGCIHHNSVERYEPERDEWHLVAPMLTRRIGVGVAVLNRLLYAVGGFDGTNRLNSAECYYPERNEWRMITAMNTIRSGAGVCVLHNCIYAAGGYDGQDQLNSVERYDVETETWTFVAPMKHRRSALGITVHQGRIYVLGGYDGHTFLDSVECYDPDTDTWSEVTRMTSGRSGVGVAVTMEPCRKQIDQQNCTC

HepG2 [5] = assay: Induction of Nrf2 transcription activity in human HepG2-ARE-C8 cells assessed as ARE gene expression at 20 to 100 uM after 24 hrs by cell-based luciferase reporter assay; type: functional
HepG2 [6] = assay: Induction of Nrf2 transcription activity in human HepG2-ARE-C8 cells assessed as ARE gene expression at 20 to 100 uM after 12 hrs by cell-based luciferase reporter assay; type: functional

Structure (SMILES): O=C(N/N=C/c1ccc(-c2ccc(C(=O)O)cc2)o1)N/N=C/c1ccc(-c2ccc(C(=O)O)cc2)o1
- Activity (HepG2 [1]): Dose-dependent effect
- Activity (HepG2 [2]): Non-toxic
- fold change (FC) (HepG2 [3]): 10
- pEC50 [4]: 5.01

Structure (SMILES): CC(C)(C)c1cc(O)ccc1O
- Activity (HepG2 [5]): inactive
- Activity (HepG2 [6]): Active
